# Laboratory results taken from ChEMBL document CHEMBL1201862, “PubChem BioAssay data set” (2004).
# Activity calls are given as the source filed them.
# What was measured:
# [1] = A Cell Based Secondary Assay To Explore Cytotoxicity of Compounds that Sensitize Mycobacterium Tuberculosis to Beta-Lactam Antibiotics.; type: functional
# Streptokinase A = target: T1, Streptokinase A (Streptococcus pyogenes serotype M1, UniProt P10520); experiment: S. pyogenes streptokinase expression inhibitors, potency, dose response, plasminogen activation absorbance, OD405 (AID 1914); type: functional, Streptococcus pyogenes M1 GAS;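 note: secreted streptokinase activity via plasminogen activation per viability signal from cell pellet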
# T1 sequence (P10520 whole entry): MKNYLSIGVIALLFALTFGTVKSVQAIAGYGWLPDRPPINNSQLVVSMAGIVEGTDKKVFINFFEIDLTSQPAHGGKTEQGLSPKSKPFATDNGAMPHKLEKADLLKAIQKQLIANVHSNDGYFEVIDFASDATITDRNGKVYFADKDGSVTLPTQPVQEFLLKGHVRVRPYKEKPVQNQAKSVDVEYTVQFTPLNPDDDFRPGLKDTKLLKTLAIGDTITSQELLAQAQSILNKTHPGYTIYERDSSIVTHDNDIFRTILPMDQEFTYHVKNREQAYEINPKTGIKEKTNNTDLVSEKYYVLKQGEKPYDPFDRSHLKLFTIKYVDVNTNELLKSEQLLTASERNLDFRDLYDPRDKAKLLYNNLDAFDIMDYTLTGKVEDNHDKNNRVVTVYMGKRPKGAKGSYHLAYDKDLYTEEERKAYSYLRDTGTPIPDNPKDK
# [2] = target: T2, Sentrin-specific protease 8 (Homo sapiens, UniProt Q96LD8); type: functional
# T2 sequence (Q96LD8 whole entry): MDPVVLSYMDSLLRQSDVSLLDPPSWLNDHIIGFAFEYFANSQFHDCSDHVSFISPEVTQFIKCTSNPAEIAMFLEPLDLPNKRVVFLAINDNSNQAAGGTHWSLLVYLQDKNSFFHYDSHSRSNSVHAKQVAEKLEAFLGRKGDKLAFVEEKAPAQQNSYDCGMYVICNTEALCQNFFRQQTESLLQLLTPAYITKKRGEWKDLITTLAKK
# [3] = target: T2, Sentrin-specific protease 8; type: functional; remark: listed apart in the source
# [4] = target: T3, Heat shock factor protein 1 (Mus musculus, UniProt P38532); experiment: HSF1 potentiators in luciferase reporter cells, confirmation, cell-based, NIH3T3, luminescence, dose retest (AID 435004); type: functional;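 note: stress induced by proteasome inhibitor MG132 added 30 min after compound; luciferase reporter driven by HSF1 response element in NIH3T3 cells; actives raise luminescence as potentiators of the MG132 stress response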
# T3 sequence (P38532 whole entry): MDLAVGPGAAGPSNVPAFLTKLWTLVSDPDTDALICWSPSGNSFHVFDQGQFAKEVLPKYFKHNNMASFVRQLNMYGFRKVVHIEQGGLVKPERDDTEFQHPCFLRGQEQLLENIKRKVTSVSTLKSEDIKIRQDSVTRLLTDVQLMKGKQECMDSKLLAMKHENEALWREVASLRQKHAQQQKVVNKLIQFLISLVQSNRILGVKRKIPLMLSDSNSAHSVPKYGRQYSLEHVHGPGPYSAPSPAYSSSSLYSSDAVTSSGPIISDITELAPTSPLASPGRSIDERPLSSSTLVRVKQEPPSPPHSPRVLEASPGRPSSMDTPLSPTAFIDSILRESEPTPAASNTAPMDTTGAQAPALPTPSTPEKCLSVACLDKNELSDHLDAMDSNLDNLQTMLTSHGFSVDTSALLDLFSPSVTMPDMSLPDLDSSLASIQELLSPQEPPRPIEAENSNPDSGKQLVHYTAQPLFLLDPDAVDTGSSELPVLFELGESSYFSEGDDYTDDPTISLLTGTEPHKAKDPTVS
# [5] = tested on: Streptococcus sp. 'group A'; experiment: growth inhibition of control SK(-) GAS strain, dose response, counter-screen for streptokinase expression inhibitor project, luminescence, kanamycin, BacTiterGlo, confirmation (AID 1900); type: functional, organism-based
# Prothrombin = Prothrombin (Homo sapiens, UniProt P00734); experiment: Thrombin 1536 HTS Dose Response Confirmation. [Related pubchem assays: 1046 (Thrombin 1536 HTS; hits were confirmed in this assay)]; type: functional
# Streptococcus = experiment: Group A Streptococcus viability loss, dose response, counter-screen for streptokinase expression inhibitor project, luminescence, BacTiterGlo (AID 1915); type: functional, organism-based;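 note: potency for reduction of bacterial viability or growth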
# [6] = target: T4, Long-chain-fatty-acid--AMP ligase FadD28 (Mycobacterium tuberculosis, UniProt P9WQ59); experiment: Fluorescence polarization aasay to screen for inhibitors that compete for the binding of FadD28 to a bisubstrate Measured in Biochemical System Using Plate Reader - 2147-01_Inhibitor_Dose_CherryPick_Activity.; type: functional, Mycobacterium tuberculosis H37Rv
# T4 sequence (P9WQ59 whole entry): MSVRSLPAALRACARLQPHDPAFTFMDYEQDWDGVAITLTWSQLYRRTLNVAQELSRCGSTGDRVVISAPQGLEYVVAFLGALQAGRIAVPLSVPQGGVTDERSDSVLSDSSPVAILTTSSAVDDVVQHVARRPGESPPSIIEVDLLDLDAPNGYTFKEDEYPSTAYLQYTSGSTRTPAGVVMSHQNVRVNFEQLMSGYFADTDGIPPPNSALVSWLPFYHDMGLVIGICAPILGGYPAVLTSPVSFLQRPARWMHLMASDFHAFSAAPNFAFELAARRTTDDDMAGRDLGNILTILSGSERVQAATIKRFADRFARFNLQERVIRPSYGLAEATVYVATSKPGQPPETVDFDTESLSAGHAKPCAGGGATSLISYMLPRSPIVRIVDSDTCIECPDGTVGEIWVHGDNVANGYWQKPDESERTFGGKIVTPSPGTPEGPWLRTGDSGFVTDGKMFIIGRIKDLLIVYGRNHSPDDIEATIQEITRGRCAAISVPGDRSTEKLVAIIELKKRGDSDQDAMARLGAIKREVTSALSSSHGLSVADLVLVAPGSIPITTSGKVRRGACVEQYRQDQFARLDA
# [7] = HEp-2 cell cytotoxicity, dose response, cytotoxicity control for RSV inhibitor project, HTS (AID 2410); type: functional; settings: human respiratory syncytial virus
# [8] = target: T5, Carboxy-terminal domain RNA polymerase II polypeptide A small phosphatase 1 (Homo sapiens, UniProt Q9GZU7); experiment: inhibitors of CTDSP1, concentration-response testing, biochemical assay, absorbance-based, actives from ultra-high-throughput screening (AID 540297); type: functional
# T5 sequence (Q9GZU7 whole entry): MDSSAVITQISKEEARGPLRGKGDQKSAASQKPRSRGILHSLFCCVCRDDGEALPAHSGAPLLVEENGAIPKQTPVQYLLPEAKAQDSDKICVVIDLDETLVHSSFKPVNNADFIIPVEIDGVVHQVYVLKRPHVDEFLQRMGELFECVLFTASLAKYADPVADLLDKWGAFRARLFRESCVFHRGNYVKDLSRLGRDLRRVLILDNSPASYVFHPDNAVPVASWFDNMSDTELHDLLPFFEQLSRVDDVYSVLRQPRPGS
# [9] = target: T6, Low molecular weight phosphotyrosine protein phosphatase (Homo sapiens, UniProt P24666); type: functional; settings: read-out: IC50_Mean;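 note: Dose-response confirmation assay measuring inhibition of LMPTP enzyme activity by fluorescence intensity read-out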
# T6 sequence (P24666 whole entry): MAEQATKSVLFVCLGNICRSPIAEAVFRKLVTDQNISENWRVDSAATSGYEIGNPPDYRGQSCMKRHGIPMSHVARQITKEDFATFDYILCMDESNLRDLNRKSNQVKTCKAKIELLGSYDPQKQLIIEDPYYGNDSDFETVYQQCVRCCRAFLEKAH
# [10] = Luminescence Cell-Based Dose Retest to Confirm Inhibitors of Cancer Stem Cells. [Related pubchem assays (depositor defined):AID2717, AID2721]; type: functional; settings: Homo sapiens
# Aminopeptidase N = target: T7, Aminopeptidase N (Plasmodium falciparum FcB1/Columbia, UniProt O96935); experiment: P. falciparum M1AAP inhibitors, biochemical, fluorogenic H-Leu-NHMec substrate, 1536-well (AID 1445); parameters: species or system Plasmodium falciparum 3D7, 3D7
# T7 sequence (O96935 whole entry): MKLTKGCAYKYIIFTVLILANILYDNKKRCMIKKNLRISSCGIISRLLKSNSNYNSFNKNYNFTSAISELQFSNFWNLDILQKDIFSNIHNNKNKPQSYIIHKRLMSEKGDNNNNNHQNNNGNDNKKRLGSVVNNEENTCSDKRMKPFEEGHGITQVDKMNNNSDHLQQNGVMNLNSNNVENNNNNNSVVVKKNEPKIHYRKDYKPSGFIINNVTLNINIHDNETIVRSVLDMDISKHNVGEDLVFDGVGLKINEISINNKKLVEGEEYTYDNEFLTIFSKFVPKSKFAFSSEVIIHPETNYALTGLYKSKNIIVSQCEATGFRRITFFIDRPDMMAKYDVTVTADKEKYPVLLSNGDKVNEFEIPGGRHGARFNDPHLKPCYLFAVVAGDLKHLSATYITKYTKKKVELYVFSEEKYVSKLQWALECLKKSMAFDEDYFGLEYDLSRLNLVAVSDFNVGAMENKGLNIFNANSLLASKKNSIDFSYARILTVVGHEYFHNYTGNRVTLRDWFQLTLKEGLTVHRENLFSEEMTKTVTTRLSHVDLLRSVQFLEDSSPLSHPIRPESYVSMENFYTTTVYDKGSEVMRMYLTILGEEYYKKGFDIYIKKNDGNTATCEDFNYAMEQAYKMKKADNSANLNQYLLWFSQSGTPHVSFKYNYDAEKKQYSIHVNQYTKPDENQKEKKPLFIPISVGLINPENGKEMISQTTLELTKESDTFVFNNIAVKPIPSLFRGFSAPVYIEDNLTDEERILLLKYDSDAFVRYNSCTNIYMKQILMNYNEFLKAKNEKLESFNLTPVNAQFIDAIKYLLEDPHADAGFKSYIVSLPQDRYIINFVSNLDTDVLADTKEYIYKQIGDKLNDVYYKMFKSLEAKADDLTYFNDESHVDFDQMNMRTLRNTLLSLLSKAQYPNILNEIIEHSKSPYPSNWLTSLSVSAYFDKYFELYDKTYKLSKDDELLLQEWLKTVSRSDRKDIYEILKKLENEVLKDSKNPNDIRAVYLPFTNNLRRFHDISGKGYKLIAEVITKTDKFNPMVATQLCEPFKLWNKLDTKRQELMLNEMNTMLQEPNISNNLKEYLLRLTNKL
# Fatty acid synthase [11] = target: T8, Fatty acid synthase (Homo sapiens, UniProt P49327); experiment: FAS thioesterase domain inhibitors, dose response, biochemical, endpoint fluorescence intensity, uHTS hits (AID 624327); type: functional;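 note: fluorescence from hydrolysis of an O-methyl fluorescein acyl ester substrate by the enzyme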
# T8 sequence (P49327 whole entry, the tested form may be a part): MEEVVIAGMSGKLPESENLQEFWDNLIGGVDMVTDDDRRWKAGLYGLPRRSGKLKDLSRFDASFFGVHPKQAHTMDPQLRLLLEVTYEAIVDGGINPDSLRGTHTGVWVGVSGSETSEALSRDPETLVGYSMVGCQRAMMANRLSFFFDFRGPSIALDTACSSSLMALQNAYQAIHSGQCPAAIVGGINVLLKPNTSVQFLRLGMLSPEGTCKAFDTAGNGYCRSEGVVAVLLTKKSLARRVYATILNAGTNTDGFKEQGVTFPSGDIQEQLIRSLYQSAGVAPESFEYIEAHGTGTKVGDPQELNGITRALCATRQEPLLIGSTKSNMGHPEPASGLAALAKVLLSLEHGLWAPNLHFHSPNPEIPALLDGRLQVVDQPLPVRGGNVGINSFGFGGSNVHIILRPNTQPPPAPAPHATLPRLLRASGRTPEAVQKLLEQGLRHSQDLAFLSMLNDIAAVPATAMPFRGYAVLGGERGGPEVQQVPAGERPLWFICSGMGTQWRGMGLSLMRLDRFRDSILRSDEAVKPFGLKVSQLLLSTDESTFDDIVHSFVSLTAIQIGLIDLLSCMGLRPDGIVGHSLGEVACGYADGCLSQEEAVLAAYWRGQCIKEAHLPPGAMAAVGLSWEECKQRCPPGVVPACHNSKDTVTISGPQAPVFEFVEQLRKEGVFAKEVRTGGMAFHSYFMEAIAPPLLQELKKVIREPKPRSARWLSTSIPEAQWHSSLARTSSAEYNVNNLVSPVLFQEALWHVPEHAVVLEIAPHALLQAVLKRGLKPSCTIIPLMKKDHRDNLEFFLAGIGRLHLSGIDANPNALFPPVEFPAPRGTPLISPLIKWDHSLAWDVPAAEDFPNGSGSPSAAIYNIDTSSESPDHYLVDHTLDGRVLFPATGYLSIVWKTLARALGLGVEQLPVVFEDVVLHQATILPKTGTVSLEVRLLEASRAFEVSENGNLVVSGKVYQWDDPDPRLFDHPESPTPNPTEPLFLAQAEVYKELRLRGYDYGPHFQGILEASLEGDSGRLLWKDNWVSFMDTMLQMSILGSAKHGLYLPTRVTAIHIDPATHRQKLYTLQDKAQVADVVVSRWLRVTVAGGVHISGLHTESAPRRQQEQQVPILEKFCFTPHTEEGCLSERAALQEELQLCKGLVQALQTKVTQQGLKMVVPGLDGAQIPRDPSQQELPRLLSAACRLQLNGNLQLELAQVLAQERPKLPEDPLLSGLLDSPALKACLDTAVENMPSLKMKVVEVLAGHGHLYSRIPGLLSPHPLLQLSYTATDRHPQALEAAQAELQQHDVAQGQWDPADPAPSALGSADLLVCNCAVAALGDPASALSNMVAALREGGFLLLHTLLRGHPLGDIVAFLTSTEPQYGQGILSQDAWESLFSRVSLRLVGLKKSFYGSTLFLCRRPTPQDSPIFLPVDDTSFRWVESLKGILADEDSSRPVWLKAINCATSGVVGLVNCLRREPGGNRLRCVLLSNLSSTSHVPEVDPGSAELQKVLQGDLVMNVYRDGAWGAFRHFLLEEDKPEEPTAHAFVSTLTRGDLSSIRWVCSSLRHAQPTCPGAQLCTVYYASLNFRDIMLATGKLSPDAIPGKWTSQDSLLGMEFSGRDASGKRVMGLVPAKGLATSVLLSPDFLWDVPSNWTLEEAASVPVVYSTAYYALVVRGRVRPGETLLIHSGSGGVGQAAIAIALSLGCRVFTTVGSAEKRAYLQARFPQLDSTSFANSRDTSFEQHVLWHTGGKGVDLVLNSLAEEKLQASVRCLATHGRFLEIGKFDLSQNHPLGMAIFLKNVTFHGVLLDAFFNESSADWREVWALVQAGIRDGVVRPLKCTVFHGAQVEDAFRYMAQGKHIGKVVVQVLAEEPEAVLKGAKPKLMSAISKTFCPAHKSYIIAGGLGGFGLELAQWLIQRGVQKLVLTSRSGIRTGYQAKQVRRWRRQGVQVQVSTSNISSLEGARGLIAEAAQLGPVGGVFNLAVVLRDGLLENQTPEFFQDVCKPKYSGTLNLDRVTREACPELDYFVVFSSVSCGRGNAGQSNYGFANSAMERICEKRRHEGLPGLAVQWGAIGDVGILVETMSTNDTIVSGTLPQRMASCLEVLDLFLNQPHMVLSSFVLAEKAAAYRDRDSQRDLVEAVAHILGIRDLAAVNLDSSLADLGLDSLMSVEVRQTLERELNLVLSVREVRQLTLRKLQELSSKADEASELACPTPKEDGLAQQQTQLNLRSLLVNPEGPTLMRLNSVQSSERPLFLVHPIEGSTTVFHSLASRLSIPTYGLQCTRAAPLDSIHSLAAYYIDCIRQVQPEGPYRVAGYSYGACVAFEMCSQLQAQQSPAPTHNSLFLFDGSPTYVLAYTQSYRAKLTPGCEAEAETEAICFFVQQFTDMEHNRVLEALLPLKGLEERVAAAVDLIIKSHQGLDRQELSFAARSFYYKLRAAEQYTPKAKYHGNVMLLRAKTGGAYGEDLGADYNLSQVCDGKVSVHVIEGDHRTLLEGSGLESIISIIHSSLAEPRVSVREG
# [12] = target: T9, High affinity choline transporter 1 (Homo sapiens, UniProt Q9GZV3); experiment: CHT inhibitors, dose response, cell-based, 5-point CRC, membrane potential dye (AID 504840); type: functional
# T9 sequence (Q9GZV3 whole entry): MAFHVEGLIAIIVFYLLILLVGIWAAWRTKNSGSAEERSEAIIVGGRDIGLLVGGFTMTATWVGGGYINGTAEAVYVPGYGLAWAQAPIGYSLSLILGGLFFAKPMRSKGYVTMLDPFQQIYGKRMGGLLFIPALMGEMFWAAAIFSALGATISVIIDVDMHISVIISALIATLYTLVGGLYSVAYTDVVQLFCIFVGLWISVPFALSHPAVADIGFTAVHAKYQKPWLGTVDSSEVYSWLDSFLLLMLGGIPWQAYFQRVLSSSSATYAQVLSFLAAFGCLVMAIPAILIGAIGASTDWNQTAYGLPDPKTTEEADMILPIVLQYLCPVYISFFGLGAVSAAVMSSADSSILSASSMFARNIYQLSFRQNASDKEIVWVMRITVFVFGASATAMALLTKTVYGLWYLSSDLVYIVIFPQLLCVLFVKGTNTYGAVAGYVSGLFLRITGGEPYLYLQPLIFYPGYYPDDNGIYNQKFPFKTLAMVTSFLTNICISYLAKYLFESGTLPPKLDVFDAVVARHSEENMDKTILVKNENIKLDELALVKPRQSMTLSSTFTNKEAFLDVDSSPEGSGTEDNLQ
# Fatty acid synthase [13] = target: T8, Fatty acid synthase; experiment: FAS thioesterase domain inhibitors, dose response, biochemical, kinetic fluorescence intensity (AID 624326); type: functional;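 note: rate of fluorescence rise from hydrolysis of a fluorogenic O-methyl fluorescein ester substrate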
smiles,measurement,setting,value
Cc1cn([C@@H](CCCCNC(=O)OC(C)(C)C)C(=O)NCCCCCCCCCCC(=O)N2CCN(C(=O)OC(C)(C)C)CC2)nn1,CC50,[1],37.6 µM (active)
Cc1[nH][nH]c(=O)c1C(c1c(C)[nH][nH]c1=O)c1cn(Cc2ccc(Cl)c(Cl)c2)c2ccccc12,EC50,Streptokinase A,10.1 µM (active)
same,IC50,[2],6.19 µM (active)
same,IC50,[3],5.81 µM (active)
same,EC50,[4],27 µM (active)
O=C(Nc1ccc(Cl)c(Cl)c1)C1CC(=O)N(c2ccc(Br)cc2)C1 (stereo unspecified),EC50,Streptokinase A,20.1 µM (active)
same,EC50,[5],5.25 µM (active)
same,IC50,Prothrombin,> 50 µM (not active)
same,EC50,Streptococcus,11.9 µM (active)
Cc1ccc(C2CC(=O)NC(SCC(=O)Nc3nccs3)=C2C#N)cc1 (stereo unspecified),AC50,[6],51.5 µM (active)
Nc1[nH]cnc2nc(SCCN3CCCCC3)nc1-2,IC50,Prothrombin,> 50 µM (not active)
COC(=O)c1cc(C)nc2c(C)cc3[nH]c4ccccc4c3c12,CC50,[1],> 40 µM (active)
same,CC50,[7],15 µM (active)
O=C(O)c1ccc(Nc2nc(-c3ccc([N+](=O)[O-])cc3)nc3ccccc23)cc1,IC50,[8],4.57 µM (active)
same,IC50,[9],10.9 µM (active)
O=C(COC(=O)c1cc(Br)ccc1O)Nc1cc(S(=O)(=O)N2CCCC2)ccc1Cl,IC50,Prothrombin,7.17 µM (active)
C/C(=N\NC(=O)c1cccc(Cl)c1)C1C(=O)c2ccccc2C1=O,AC50,[10],10.7 µM (active)
same,AC50,[6],68.6 µM (active)
same,IC50,Aminopeptidase N,40.8 µM (active)
Cc1cc(=O)n(-c2ccc3ccccc3n2)[nH]1,IC50,[2],30.4 µM (active)
same,IC50,[3],24.2 µM (active)
CC1OC(O[C@H]2CC[C@]3(C)C4C=C[C@]56OC[C@@]7(CC[C@@H](C)[C@H](C)C75)[C@H](O)C[C@@]6(C)[C@]4(C)CC[C@H]3C2(C)C)C(OC2OC(CO)C(O)C(O)C2OC2OCC(O)C(O)C2O)C(O)C1O (stereo partly specified),IC50,Prothrombin,> 50 µM (not active)
COc1ccccc1-n1c(C)cc(/C=C2/C(=N)N3C(=NC2=O)SN=C3S(C)(=O)=O)c1C,CC50,[7],19.8 µM (active)
same,IC50,cells,11.4 µM (active)
C/C(=N\NS(=O)(=O)c1ccc(Cl)c([N+](=O)[O-])c1)c1cc2ccccc2o1,IC50,Fatty acid synthase [11],12.3 µM (active)
same,IC50,[12],4.37 µM (active)
same,IC50,Fatty acid synthase [13],15.6 µM (active)
same,IC50,[9],80 µM (inactive)
Cc1c(NC(=O)CSc2nnc3c4ccccc4n(CCc4ccccc4)c3n2)c(=O)n(-c2ccccc2)n1C,EC50,[4],24.1 µM (active)
same,CC50,[7],4.56 µM (active)
same,IC50,cells,3.31 µM (active)
